According to the supplement of paper PMC11061612:

Legend:
SIMA (Neuroblastoma) [1] = test: Bliss excess, mean over the matrix (fraction); higher = more synergy
Outline: (§1)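 After 24 hours at 37°C and 5% CO2 in 1536-well plates, cells in DMEM/F12 or RPMI plus 10% FBS received two-drug dose matrices for 72 hours. Viability came from CellTiter-Glo 2.0 luminescence and was scaled as inhibition, anchored at 0 by vehicle wells and at 1 by blank wells. Combination Emax is taken as the second-highest inhibition in the matrix, and Bliss excess as the observed combination effect less EA + EB − EA·EB, with EA and EB the single-agent effects.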

RH-18 (Rhabdomyosarcoma) [2] = test: as above
Outline: as §1

[3] = tested on: EN (Endometrial Carcinoma); test: combination Emax (second highest fraction inhibited in the dose matrix, 72 h); higher = more inhibition; extreme values may be limits of the assay
Outline: as §1

SIMA (Neuroblastoma) [4] = test: as above
Outline: as §1

[5] = tested on: LoVo (Colorectal Carcinoma); test: as above
Outline: as §1

SH-4 (Melanoma) = test: as above
Outline: as §1

[6] = tested on: TE-4 (Esophageal Squamous Cell Carcinoma); test: as above
Outline: as §1

[7] = tested on: RKO (Colorectal Carcinoma); test: as above
Outline: as §1

[8] = tested on: SW1116 (Colorectal Carcinoma); test: as above
Outline: as §1

[9] = tested on: PCI-30 (Head and Neck Carcinoma); test: as above
Outline: as §1

[10] = tested on: SUP-T1 (T-Lymphoblastic Leukemia); test: as above
Outline: as §1

RH-18 (Rhabdomyosarcoma) [11] = test: as above
Outline: as §1
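Throughout, for Bliss excess, mean over the matrix: after 72 h of two-drug dosing.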

SMILES | Bliss excess (SIMA (Neuroblastoma) [1]) | Bliss excess (RH-18 (Rhabdomyosarcoma) [2]) | combination Emax [3] | combination Emax (SIMA (Neuroblastoma) [4]) | combination Emax [5] | combination Emax (SH-4 (Melanoma)) | combination Emax [6] | combination Emax [7] | combination Emax [8] | combination Emax [9] | combination Emax [10] | combination Emax (RH-18 (Rhabdomyosarcoma) [11])
Cc1cc2ncnn2cc1Nc1ncc2c(n1)n(C1CCOCC1)c(=O)n2C [AZD7648] + CCN(CCO)CCCOc1ccc2c(Nc3cc(CC(=O)Nc4cccc(F)c4)[nH]n3)ncnc2c1 [AZD2811] (first compound max 10 µM, 7x7, partner max 1 µM) | 0.0728 | 0.0148 | 0.519 | 0.532 | 0.529 | 0.345 | 0.137 | 0.409 | 0.249 | 0.318 | 0.641 | 0.333
CN(C)CCCOc1ccc(-c2ccc3ncc4c(c3c2)n(C2CCOCC2)c(=O)n4C)cn1 [AZD0156] + C=CCn1c(=O)c2cnc(Nc3ccc(N4CCN(C)CC4)cc3)nc2n1-c1cccc(C(C)(C)O)n1 [AZD1775] (first compound max 1 µM, partner max 1 µM) | -0.006 | -0.0645 | 0.512 | 0.873 | 0.785 | 0.564 | 0.324 | 0.719 | 0.235 | 0.265 | 0.872 | 0.337
Cc1cc2ncnn2cc1Nc1ncc2c(n1)n(C1CCOCC1)c(=O)n2C [AZD7648] + C=CCn1c(=O)c2cnc(Nc3ccc(N4CCN(C)CC4)cc3)nc2n1-c1cccc(C(C)(C)O)n1 [AZD1775] (first compound max 10 µM, partner max 1 µM) | 0.0406 | 0.0278 | 0.662 | 0.941 | 0.732 | 0.447 | 0.431 | 0.678 | 0.295 | 0.375 | 0.834 | 0.426
COc1cccc(OCCCN)c1-c1cc(Nc2cnc(C#N)cn2)n[nH]1 [Prexasertib] + C=CCn1c(=O)c2cnc(Nc3ccc(N4CCN(C)CC4)cc3)nc2n1-c1cccc(C(C)(C)O)n1 [AZD1775] (first compound max 1 µM, partner max 1 µM) | 0.0181 | 0.154 | 0.859 | 0.993 | 0.894 | 0.742 | 0.813 | 0.974 | 0.63 | 0.894 | 0.848 | 0.492
COc1cccc(OCCCN)c1-c1cc(Nc2cnc(C#N)cn2)n[nH]1 [Prexasertib] + O=C(c1cc(Cc2n[nH]c(=O)c3ccccc23)ccc1F)N1CCN(C(=O)C2CC2)CC1 [Olaparib] (first compound max 1 µM, 7x7, partner max 10 µM) | -0.0728 | -0.0295 | 0.726 | 0.97 | 0.798 | 0.611 | 0.654 | 0.874 | 0.565 | 0.548 | 0.79 | 0.327
C[C@@H]1COCCN1c1cc(C2([S@](C)(=N)=O)CC2)nc(-c2ccnc3[nH]ccc23)n1 [AZD6738] + O=C(c1cc(Cc2n[nH]c(=O)c3ccccc23)ccc1F)N1CCN(C(=O)C2CC2)CC1 [Olaparib] (first compound max 10 µM, 7x7, partner max 10 µM) | -0.0498 | 0.012 | 0.535 | 0.642 | 0.772 | 0.419 | 0.527 | 0.845 | 0.262 | 0.538 | 0.767 | 0.406
COc1cccc(OCCCN)c1-c1cc(Nc2cnc(C#N)cn2)n[nH]1 [Prexasertib] + CCc1c2c(nc3ccc(O)cc13)-c1cc3c(c(=O)n1C2)COC(=O)[C@]3(O)CC [SN-38] (first compound max 1 µM, 7x7, partner max 0.3 µM) | – | -0.0464 | 0.75 | – | 0.847 | 0.684 | 0.881 | 0.909 | 0.763 | 0.966 | 0.819 | 0.689
Cc1cc2ncnn2cc1Nc1ncc2c(n1)n(C1CCOCC1)c(=O)n2C [AZD7648] + O=C(c1cc(Cc2n[nH]c(=O)c3ccccc23)ccc1F)N1CCN(C(=O)C2CC2)CC1 [Olaparib] (first compound max 10 µM, 7x7, partner max 10 µM) | -0.02 | -0.0417 | 0.301 | 0.192 | 0.533 | 0.179 | 0.167 | 0.242 | 0.0602 | 0.198 | 0.465 | 0.182
COc1cccc(OCCCN)c1-c1cc(Nc2cnc(C#N)cn2)n[nH]1 [Prexasertib] + CN(C)CCCOc1ccc(-c2ccc3ncc4c(c3c2)n(C2CCOCC2)c(=O)n4C)cn1 [AZD0156] (first compound max 1 µM, 7x7, partner max 1 µM) | 0.0111 | -0.0006 | 0.762 | 1 | 0.896 | 0.807 | 0.65 | 0.891 | 0.516 | 0.813 | 0.821 | 0.426
CCN(CCO)CCCOc1ccc2c(Nc3cc(CC(=O)Nc4cccc(F)c4)[nH]n3)ncnc2c1 [AZD2811] + O=C(c1cc(Cc2n[nH]c(=O)c3ccccc23)ccc1F)N1CCN(C(=O)C2CC2)CC1 [Olaparib] (first compound max 1 µM, 7x7, partner max 10 µM) | 0.0206 | 0.0097 | 0.434 | 0.213 | 0.354 | 0.265 | 0.145 | 0.276 | 0.223 | 0.265 | 0.528 | 0.257
CCc1c2c(nc3ccc(O)cc13)-c1cc3c(c(=O)n1C2)COC(=O)[C@]3(O)CC [SN-38] + CN(C)CCCOc1ccc(-c2ccc3ncc4c(c3c2)n(C2CCOCC2)c(=O)n4C)cn1 [AZD0156] (first compound max 0.3 µM, 7x7, partner max 1 µM) | -0.0753 | -0.0477 | 0.157 | 0.907 | 0.727 | 0.27 | 0.402 | 0.91 | 0.199 | 0.692 | 0.853 | 0.459
COc1cc2c(cc1OCCCCCOc1cc3c(cc1OC)C(=O)N1C=C(C)C[C@H]1C=N3)N=C[C@@H]1CC(C)=CN1C2=O [SG3199] + O=C(c1cc(Cc2n[nH]c(=O)c3ccccc23)ccc1F)N1CCN(C(=O)C2CC2)CC1 [Olaparib] (first compound max 0.001 µM, 7x7, partner max 10 µM) | -0.0214 | -0.0378 | 0.148 | 0.421 | 0.14 | 0.181 | 0.233 | 0.114 | 0.0344 | 0.105 | 0.442 | 0.174
Cc1cc2ncnn2cc1Nc1ncc2c(n1)n(C1CCOCC1)c(=O)n2C [AZD7648] + C[C@@H]1COCCN1C2=NC(=NC(=C2)C3(CC3)[S@](=N)(=O)C)C4=C5C=CNC5=NC=C4 [AZD6738] (first compound max 10 µM, 7x7, partner max 10 µM) | 0.0326 | 0.0727 | 0.62 | 0.904 | 0.813 | 0.335 | 0.531 | 0.865 | 0.267 | 0.686 | 0.744 | 0.365
CN(C)CCCOc1ccc(-c2ccc3ncc4c(c3c2)n(C2CCOCC2)c(=O)n4C)cn1 [AZD0156] + CCN(CCO)CCCOc1ccc2c(Nc3cc(CC(=O)Nc4cccc(F)c4)[nH]n3)ncnc2c1 [AZD2811] (first compound max 1 µM, 7x7, partner max 1 µM) | -0.0085 | -0.0253 | 0.494 | 0.131 | 0.435 | 0.247 | 0.071 | 0.213 | 0.0823 | 0.192 | 0.366 | 0.136
C=CCn1c(=O)c2cnc(Nc3ccc(N4CCN(C)CC4)cc3)nc2n1-c1cccc(C(C)(C)O)n1 [AZD1775] + C[C@@H]1COCCN1C2=NC(=NC(=C2)C3(CC3)[S@](=N)(=O)C)C4=C5C=CNC5=NC=C4 [AZD6738] (first compound max 1 µM, partner max 10 µM) | 0.0547 | -0.0014 | 0.764 | 0.906 | 0.875 | 0.56 | 0.805 | 0.943 | 0.506 | 0.696 | 0.882 | 0.625
CCN(CCO)CCCOc1ccc2c(Nc3cc(CC(=O)Nc4cccc(F)c4)[nH]n3)ncnc2c1 [AZD2811] + C[C@@H]1COCCN1C2=NC(=NC(=C2)C3(CC3)[S@](=N)(=O)C)C4=C5C=CNC5=NC=C4 [AZD6738] (first compound max 1 µM, 7x7, partner max 10 µM) | -0.0332 | -0.0336 | 0.609 | 0.766 | 0.83 | 0.31 | 0.372 | 0.853 | 0.295 | 0.581 | 0.777 | 0.344
COc1cccc(OCCCN)c1-c1cc(Nc2cnc(C#N)cn2)n[nH]1 [Prexasertib] + Cc1cc2ncnn2cc1Nc1ncc2c(n1)n(C1CCOCC1)c(=O)n2C [AZD7648] (first compound max 1 µM, 7x7, partner max 10 µM) | -0.035 | 0.0455 | 0.756 | 0.992 | 0.879 | 0.709 | 0.597 | 0.901 | 0.463 | 0.721 | 0.821 | 0.382
CN(C)CCCOc1ccc(-c2ccc3ncc4c(c3c2)n(C2CCOCC2)c(=O)n4C)cn1 [AZD0156] + C[C@@H]1COCCN1C2=NC(=NC(=C2)C3(CC3)[S@](=N)(=O)C)C4=C5C=CNC5=NC=C4 [AZD6738] (first compound max 1 µM, 7x7, partner max 10 µM) | 0.074 | -0.0312 | 0.581 | 0.9 | 0.867 | 0.465 | 0.604 | 0.879 | 0.28 | 0.659 | 0.78 | 0.343
CCc1c2c(nc3ccc(O)cc13)-c1cc3c(c(=O)n1C2)COC(=O)[C@]3(O)CC [SN-38] + O=C(c1cc(Cc2n[nH]c(=O)c3ccccc23)ccc1F)N1CCN(C(=O)C2CC2)CC1 [Olaparib] (first compound max 0.3 µM, 7x7, partner max 10 µM) | – | 0.0899 | 0.18 | – | 0.717 | 0.48 | 0.402 | 0.86 | 0.214 | 0.727 | 0.84 | 0.76
